Patent US20200131144A1, “AMINE OR (THIO)AMIDE CONTAINING LXR MODULATORS” (Phenex-FXR GmbH, priority 2017, published 2020)

Experiments:
[1] = Pharmacokinetics in mice after single oral dosing, blood and liver exposure by LC-MS; assay type: in vivo, mice (C57/bl6/J); details: single oral dose 20 mg/kg; for Kp at 4 h: male, C57/bl6/J, mouse, liver/blood, read-out: liver/blood ratio
Method: The pharmacokinetics of the compounds was assessed in mice after single dosing and oral administrations. Blood and liver exposure was measured via LC-MS.
The study design was as follows:
Animals: C57/bl6/J (Janvier) males Diet: standard rodent chow Dose: 20 mg/kg Animal handling: animals were withdrawn from food at least 12 h before administration Design: single dose oral administration, n=3 animals per group Sacrifice: at stated time point (4, 12 or 24 h) after administration Bioanalytics: LC-MS of liver and blood samples

[2] = biological target: T1, LXRα ligand-binding domain (LBD) (Homo sapiens, UniProt Q13133); assay: LXR Gal4 reporter transient transfection assay, mammalian two-hybrid, LBD-M2H Gal4α; assay type: cell-based; details: HEK293 cells; inverse agonist unless *
T1 construct: expressed in transfected cells; host or cells: HEK293
T1 sequence (Q13133 155-447): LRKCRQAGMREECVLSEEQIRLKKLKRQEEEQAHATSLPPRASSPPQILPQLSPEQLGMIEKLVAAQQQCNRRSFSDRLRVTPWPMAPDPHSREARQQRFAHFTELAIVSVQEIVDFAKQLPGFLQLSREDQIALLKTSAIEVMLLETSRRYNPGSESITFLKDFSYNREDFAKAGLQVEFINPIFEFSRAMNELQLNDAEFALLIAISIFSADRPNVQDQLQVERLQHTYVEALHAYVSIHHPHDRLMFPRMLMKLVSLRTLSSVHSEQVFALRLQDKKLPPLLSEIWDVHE
Method: (§1) The tested compounds were usually dissolved, tested and stored as 20 mM stock solutions in DMSO. Since sulfonyl acetic acid derivatives tend to decarboxylate under these conditions, these stock solutions were prepared, tested and stored as 20 mM DMSO stock solutions containing 100 mM trifluoroacetic acid (5 equivalents). Sulfonyl acetic acid derivatives are shelf stable as solid at rt for long time as reported by Griesbrecht et al. (Synlett 2010:374) or Faucher et al. (J. Med. Chem. 2004; 47:18).
(§2) LXR Gal4 Reporter Transient Transfection Assays
(§3) LXRα and LXRβ activity status was determined via detection of interaction with coactivator and corepressor proteins in mammalian two-hybrid experiments (M2H). For this, via transient transfection the full length (FL) proteins of LXRα (amino acids 1-447; NP005684; SEQ ID NO:1) or LXRβ-(amino acids 1-461; NP009052; SEQ ID NO:2) or the ligand-binding domains (LBD) of LXRα (amino acids 155-447 SEQ ID NO:3) or LXR (amino acids 156-461; SEQ ID NO:4) were expressed from pCMV-AD (Stratagene) as fusions to the transcriptional activation domain of NFkB. As cofactors, domains of either the steroid receptor coactivator 1 (SRC1; amino acids 552-887; SEQ ID NO:5) or of the corepressor NCoR (amino acids 1906-2312; NP006302; SEQ ID NO:6) were expressed as fusions to the DNA binding domain of the yeast transcription factor GAL4 (from pCMV-BD; Stratagene). Interaction was monitored via activation of a coexpressed Firefly Luciferase Reporter gene under control of a promoter containing repetitive GAL4 response elements (vector pFRLuc; Stratagene). Transfection efficiency was controlled via cotransfection of constitutively active pRL-CMV Renilla reniformis luciferase reporter (Promega). HEK293 cells were grown in minimum essential medium (MEM) with 2 mM L-glutamine and Earle's balanced salt solution supplemented with 8.3% fetal bovine serum, 0.1 mM non-essential amino acids, 1 mM sodium pyruvate, at 37° C. in 5% CO2. 3.5×10^4 cells/well were plated in 96-well cell culture plates in growth medium supplemented with 8.3% fetal bovine serum for 16-20 h to—90% confluency. For transfection, medium was taken off and LXR and cofactor expressing plasmids as well as the reporter plasmids are added in 30 μL OPTIMEM/well including polyethylene-imine (PEI) as vehicle. Typical amounts of plasmids transfected/well: pCMV-AD-LXR (5 ng), pCMV-BD-cofactor (5 ng), pFR-Luc (100 ng), pRL-CMV (0.5 ng). Compound stocks were prepared in DMSO, prediluted in MEM to a total volume of 120 μL, and added 4 h after addition of the transfection mixture (final vehicle concentration not exceeding 0.2%). Cells were incubated for additional 16 h, lysed for 10 min in 1×Passive Lysis Buffer (Promega) and Firefly and Renilla luciferase activities were measured sequentially in the same cell extract using buffers containing D-luciferine and coelenterazine, respectively. Measurements of luminescence were done in a BMG-luminometer.

[3] = biological target: T2, LXRβ ligand-binding domain (LBD) (Homo sapiens, UniProt P55055, INS174Q); assay: LXR Gal4 reporter transient transfection assay, mammalian two-hybrid, LBD-M2H Gal4β; assay type: cell-based; details: HEK293 cells; inverse agonist unless *
T2 construct: or LXR (amino acids 156-461); expressed in transfected cells; host or cells: HEK293
T2 sequence (P55055 with tags, fused parts or gaps INS174Q limits assumed): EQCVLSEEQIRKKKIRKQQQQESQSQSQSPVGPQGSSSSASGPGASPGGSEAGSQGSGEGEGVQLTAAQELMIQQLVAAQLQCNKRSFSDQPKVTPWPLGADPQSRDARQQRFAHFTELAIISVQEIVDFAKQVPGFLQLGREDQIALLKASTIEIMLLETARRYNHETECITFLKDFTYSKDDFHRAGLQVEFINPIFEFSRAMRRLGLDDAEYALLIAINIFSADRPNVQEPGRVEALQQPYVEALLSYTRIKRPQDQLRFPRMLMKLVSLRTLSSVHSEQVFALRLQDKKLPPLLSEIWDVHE
Method: as §1, §2, §3

[4] = biological target: T3, GST-LXRβ ligand-binding domain (Homo sapiens, UniProt P55055, INS174Q); assay: TR-FRETβ activity assay (NCoA3 coactivator peptide recruitment); assay type: biochemical; details: 1 μM 24(S)-25-epoxycholesterol as prestimulating agonist; inverse agonist unless *
T3 construct: amino acids 156-461; NP009052; made in house; host or cells: E. coli
T3 sequence (P55055 with tags, fused parts or gaps INS174Q limits assumed): T2 sequence (P55055 with tags, fused parts or gaps INS174Q limits assumed)
In short: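 Coactivator recruitment read as TR-FRET (ex 340, em 615 and 665 nm) after 1 h equilibration at 4° C, in triplicate. Mix held 76 nM GST-tagged LXRβ LBD (aa 156-461, E. coli), 400 nM biotin-NCoA3 peptide, Tb-cryptate anti-GST, streptavidin-XL665, 240 mM KCl buffer.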

Structure (SMILES) | Kp at 4 h ([1]; time point 4 h) | blood/plasma exposure ([1]; time point 4 h) | liver exposure ([1]; time point 4 h) | EC50 [2] | EC50 [3] | EC50 [4] | liver exposure ([1]; time point 12 h) | FRETβ [4]
CC(C)(C(=O)O)c1cccc(-c2ccc(CN(Cc3ccc(C(F)(F)F)o3)Cc3c(C#N)ccc4ccccc34)cc2)c1 [27/67] | 2.7 | 4.46 µM | 12.1 µM | < 100 nM | < 100 nM | < 100 nM | – | –
Cc1cc(C)c(C(=O)N(Cc2ccc(-c3cccc(S(=O)(=O)CC(=O)O)c3)cc2)Cc2ccc(C(F)(F)F)o2)c(C)c1 [Example 4, 2-((4′-((2,4,6-Trimethyl-N-((5-(trifluoromethyl)furan-2-yl)methyl)benzamido)methyl)-1,1′-biphenyl-3-yl)sulfonyl)acetic acid] | – | – | – | 100 to 1000 nM | 100 to 1000 nM | 1000 to 10000 nM | 3.45 µM | –
Cc1ccc2ccccc2c1CN(Cc1ccc(-c2cccc(C(C)(C)C(=O)O)n2)cc1)Cc1ccc(C(F)(F)F)o1 [14/2] | – | – | – | 100 to 1000 nM | < 100 nM | 1000 to 10000 nM | – | –
Cc1ccc2ccccc2c1CN(Cc1ccc(C(F)(F)F)o1)Cc1ccc(-c2cccc(C(C)(C)C(=O)O)c2)c2nccn12 [7/15] | – | – | – | 100 to 1000 nM | < 100 nM | 1000 to 10000 nM | – | –
CC(C)(C(=O)O)c1cccc(-c2ccc(CN(Cc3ccc(C(F)(F)F)o3)Cc3c(C(F)F)ccc4ccccc34)cc2)c1 [27/69] | – | – | – | < 100 nM | < 100 nM | 100 to 1000 nM | – | –
CC(C)(C(=O)O)c1cccc(-c2ccc(CN(Cc3ccc(C(F)(F)F)o3)Cc3c(OC(F)F)ccc4ccccc34)cc2)c1 [27/68] | – | – | – | < 100 nM | < 100 nM | < 100 nM | – | –
Cc1ccc(CN(Cc2ccc(-c3cccc(C(C)(C)C(=O)O)c3)cc2)Cc2ccc(C(F)(F)F)o2)c2ccccc12 [24/1] | 8 | 2.25 µM | 18 µM | < 100 nM | < 100 nM | < 100 nM | – | –
COc1cc(-c2cccc(C(C)(C)C(=O)O)c2)ccc1CN(Cc1ccc(C(F)(F)F)o1)Cc1c(C)cc(C)cc1C [22/12] | – | – | – | 100 to 1000 nM | < 100 nM | 100 to 1000 nM | – | –
COc1cc(-c2ccc3c(c2)C(C)(C)C(=O)OC3)ccc1CN(Cc1ccc(C(F)(F)F)o1)Cc1c(C)ccc2ccccc12 [7/9] | – | – | – | 1000 to 10000 nM | < 100 nM | 1000 to 10000 nM | – | –
Cc1cc(C)c(C(=O)N(Cc2ccc(-c3cccc(OCC(=O)O)c3)cc2)Cc2ccc(C(F)(F)F)o2)c(C)c1 [10/3] | – | – | – | 100 to 1000 nM | 100 to 1000 nM | > 10000 nM | – | –
COc1cc(-c2cccc(C(C)(C)C(=O)O)c2)ccc1CN(Cc1ccc(C(F)(F)F)o1)Cc1c(C)ccc2ccccc12 [22/11] | 4.8 | 0.57 µM | 2.75 µM | < 100 nM | < 100 nM | 100 to 1000 nM | – | –
Cc1cc(C)c(C(=O)N(Cc2ccc(-c3cccc(CCC(=O)O)c3)cc2)Cc2ccc(C(F)(F)F)o2)c(C)c1 [10/2] | – | – | – | 100 to 1000 nM | < 100 nM | 1000 to 10000 nM | – | –
CC(C)(C(=O)O)c1cccc(-c2ccc(CN(Cc3ccc(C(F)(F)F)o3)C(=O)C34CC5CC(CC(C5)C3)C4)cc2)c1 [27/56] | – | – | – | 100 to 1000 nM | < 100 nM | – | – | B*
Cc1ccc2ccccc2c1CN(Cc1ccc(-c2cccc(CC(C)(C)C(=O)O)c2)cc1)Cc1ccc(C(F)(F)F)o1 [26/2] | – | – | – | 100 to 1000 nM | < 100 nM | 1000 to 10000 nM | – | –
Cc1ccc2cccnc2c1CN(Cc1ccc(-c2cccc(C(C)(C)C(=O)O)c2)cc1)Cc1ccc(C(F)(F)F)o1 [24/2] | – | – | – | 100 to 1000 nM | < 100 nM | 1000 to 10000 nM | – | –
Cc1ccc2ncccc2c1CN(Cc1ccc(-c2cccc(C(C)(C)C(=O)O)c2)cc1)Cc1ccc(C(F)(F)F)o1 [24/3] | 9.7 | 1.22 µM | 11.8 µM | < 100 nM | < 100 nM | 100 to 1000 nM | – | –
CC(C)(C(=O)O)c1cccc(-c2ccc(CN(Cc3ccc(C(F)(F)F)o3)C(=O)c3cccn4nccc34)cc2)c1 [27/70] | – | – | – | 100 to 1000 nM | < 100 nM | 100 to 1000 nM | – | –
Cc1ccc2ccccc2c1CN(Cc1ccc(-c2cc(C(C)(C)C(=O)O)ccn2)cc1)Cc1ccc(C(F)(F)F)o1 [14/1] | – | – | – | 100 to 1000 nM | < 100 nM | 1000 to 10000 nM | – | –
Cc1cc(C)c2ccccc2c1CN(Cc1ccc(-c2cccc(C(C)(C)C(=O)O)c2)cc1)Cc1ccc(C(F)(F)F)o1 [24/6] | – | – | – | < 100 nM | < 100 nM | 100 to 1000 nM | – | –
COc1cc(-c2cccc(C(C)(C)C(=O)O)c2)cnc1CN(Cc1ccc(C(F)(F)F)o1)Cc1c(C)ccc2ccccc12 [22/4] | – | – | – | 1000 to 10000 nM | < 100 nM | 100 to 1000 nM | – | –
Cc1nc2ccccc2c(CN(Cc2ccc(-c3cccc(C(C)(C)C(=O)O)c3)cc2)Cc2ccc(C(F)(F)F)o2)c1C [24/5] | – | – | – | < 100 nM | < 100 nM | – | – | D*
CC(C)(C(=O)O)c1cccc(-c2ccc(CN(Cc3ccc(C(F)(F)F)o3)Cc3cccc4nonc34)cc2)c1 [25/1] | – | – | – | 100 to 1000 nM | < 100 nM | – | – | B*
Cc1ccc2ccccc2c1CN(Cc1ccc(-c2cncc(C(C)(C)C(=O)O)c2)cc1)Cc1ccc(C(F)(F)F)o1 [26/1] | – | – | – | 100 to 1000 nM | < 100 nM | 1000 to 10000 nM | – | –
CC(c1cccc2ccccc12)N(Cc1ccc(-c2cccc(S(=O)(=O)CC(=O)O)c2)cc1)Cc1ccc(C(F)(F)F)o1 (stereo not shown) [Example 7, 2-((4′-(((1-(Naphthalen-1-yl)ethyl)((5-(trifluoromethyl)furan-2-yl)methyl)amino)methyl)-[1,1′-biphenyl]-3-yl)sulfonyl)acetic acid] | – | – | – | < 100 nM | < 100 nM | < 100 nM | – | –
Cc1ncc2ccccc2c1CN(Cc1ccc(-c2cccc(C(C)(C)C(=O)O)c2)cc1)Cc1ccc(C(F)(F)F)o1 [24/4] | – | – | – | < 100 nM | < 100 nM | 100 to 1000 nM | – | –
